Data: US20230355571A1, “METHOD FOR TREATING VIRAL AND BACTERIAL INFECTION THROUGH INHALATION THERAPY” (priority 2020, published 2023)
Read-outs that look alike come from different tables or passages of the source.

Experiments:
human lung cancer A549 = settings: in vitro and ex vivo; cited from earlier work
leukemia K562 cells = settings: in vitro and ex vivo; cited from earlier work
guinea pigs [1] = settings: cited from earlier work
mice [2] = settings: cited from earlier work
hTRPA1 = hTRPA1 (Homo sapiens, UniProt O75762); settings: cited from earlier work; for inhibition of hTRPA1 activation by menthol and AITC: compound at 1 mM, menthol 1 mM, AITC 10 uM
Chain of hTRPA1 (O75762 whole entry): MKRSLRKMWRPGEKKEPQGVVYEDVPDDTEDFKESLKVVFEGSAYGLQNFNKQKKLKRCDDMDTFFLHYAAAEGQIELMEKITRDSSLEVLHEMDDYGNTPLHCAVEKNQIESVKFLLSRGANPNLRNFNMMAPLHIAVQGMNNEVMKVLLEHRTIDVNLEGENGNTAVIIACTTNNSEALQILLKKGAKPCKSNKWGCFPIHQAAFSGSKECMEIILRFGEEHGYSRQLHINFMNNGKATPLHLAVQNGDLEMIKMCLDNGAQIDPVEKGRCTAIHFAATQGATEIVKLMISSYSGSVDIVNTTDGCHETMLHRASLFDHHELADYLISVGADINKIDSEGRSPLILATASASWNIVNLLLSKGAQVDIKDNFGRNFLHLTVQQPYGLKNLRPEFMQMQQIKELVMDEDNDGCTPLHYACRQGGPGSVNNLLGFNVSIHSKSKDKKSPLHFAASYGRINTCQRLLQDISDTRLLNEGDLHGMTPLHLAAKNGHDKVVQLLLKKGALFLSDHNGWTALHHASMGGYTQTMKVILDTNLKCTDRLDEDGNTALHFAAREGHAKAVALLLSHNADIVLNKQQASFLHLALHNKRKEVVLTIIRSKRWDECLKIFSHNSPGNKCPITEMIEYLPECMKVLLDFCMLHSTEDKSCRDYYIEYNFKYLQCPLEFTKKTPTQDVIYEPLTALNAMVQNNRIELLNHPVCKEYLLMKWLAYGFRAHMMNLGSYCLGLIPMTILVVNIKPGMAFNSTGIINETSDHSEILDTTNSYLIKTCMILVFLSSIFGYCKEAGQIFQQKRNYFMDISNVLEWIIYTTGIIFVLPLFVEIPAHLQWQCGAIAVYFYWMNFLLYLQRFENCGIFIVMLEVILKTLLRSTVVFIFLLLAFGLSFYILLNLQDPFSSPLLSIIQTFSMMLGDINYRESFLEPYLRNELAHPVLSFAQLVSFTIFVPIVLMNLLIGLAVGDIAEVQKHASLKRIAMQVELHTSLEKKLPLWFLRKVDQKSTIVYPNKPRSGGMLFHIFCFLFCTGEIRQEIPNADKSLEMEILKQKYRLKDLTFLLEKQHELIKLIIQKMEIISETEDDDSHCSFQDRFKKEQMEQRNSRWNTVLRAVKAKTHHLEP

[3] = cited from earlier work
rats [4] = settings: oral, rat, cited from earlier work
rats [5] = test: NOAEL, oral, rats; assay type: in vivo
Method: The NOAEL value for Polysorbate 20 taken orally in rats is greater than 2,500 mg/kg (body weight), the highest dose tested.

human MonoMac6 cells = settings: cells pretreated; cited from earlier work
[6] = in vivo; cited from earlier work
asthma patients = settings: human, in vivo; cited from earlier work
COPD patients = settings: orally 600 mg/day, cited from earlier work
H5N1 influenza A virus = settings: 5 mM (816 mg/L) to 15 mM (2,448 mg/L), 24 hrs post-infection; cited from earlier work
[7] = test system: primary human bronchial epithelial cells; settings: pretreatment; cited from earlier work
[8] = test system: CdCl2 treated human lung cells; settings: 2.5 mM; 75 μM CdCl2; cited from earlier work
mice [9] = settings: inhalation; cited from earlier work
mice [10] = settings: intraperitoneal 5 and 10 mg/kg-d pretreatment; cited from earlier work
CB2 receptor = CB2 receptor (Homo sapiens, UniProt P34972); settings: unit inferred; read-out: Ki, CB2 receptor binding; cited from earlier work
Chain of CB2 receptor (P34972 whole entry): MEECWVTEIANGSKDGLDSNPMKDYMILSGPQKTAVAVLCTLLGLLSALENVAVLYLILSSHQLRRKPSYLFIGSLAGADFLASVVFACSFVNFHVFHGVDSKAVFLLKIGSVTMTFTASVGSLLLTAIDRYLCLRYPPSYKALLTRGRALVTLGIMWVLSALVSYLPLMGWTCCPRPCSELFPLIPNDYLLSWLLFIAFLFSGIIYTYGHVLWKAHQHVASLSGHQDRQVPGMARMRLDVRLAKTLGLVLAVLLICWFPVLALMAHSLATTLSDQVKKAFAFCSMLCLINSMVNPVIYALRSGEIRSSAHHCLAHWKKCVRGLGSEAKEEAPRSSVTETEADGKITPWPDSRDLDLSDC

guinea pigs [11] = settings: pretreatment; cited from earlier work
mice [12] = settings: oral (species not given; mice); cited from earlier work
mice [13] = test: NOAEL, oral, mice
[14] = test system: Human respiratory syncytial virus (hRSV); settings: 14 days prior to challenge and 3 days post challenge; cited from earlier work
TRAPA1 = TRAPA1 (Homo sapiens, UniProt O75762); settings: read-out: IC50, TRPA1 antagonist; cited from earlier work
Chain of TRAPA1 (O75762 whole entry): as the sequence (O75762 whole entry) above

HEK293 cell = settings: cited from earlier work
TRPV1 = TRPV1 (Homo sapiens, UniProt Q8NER1); settings: cited from earlier work
Chain of TRPV1 (Q8NER1 whole entry, species assumed): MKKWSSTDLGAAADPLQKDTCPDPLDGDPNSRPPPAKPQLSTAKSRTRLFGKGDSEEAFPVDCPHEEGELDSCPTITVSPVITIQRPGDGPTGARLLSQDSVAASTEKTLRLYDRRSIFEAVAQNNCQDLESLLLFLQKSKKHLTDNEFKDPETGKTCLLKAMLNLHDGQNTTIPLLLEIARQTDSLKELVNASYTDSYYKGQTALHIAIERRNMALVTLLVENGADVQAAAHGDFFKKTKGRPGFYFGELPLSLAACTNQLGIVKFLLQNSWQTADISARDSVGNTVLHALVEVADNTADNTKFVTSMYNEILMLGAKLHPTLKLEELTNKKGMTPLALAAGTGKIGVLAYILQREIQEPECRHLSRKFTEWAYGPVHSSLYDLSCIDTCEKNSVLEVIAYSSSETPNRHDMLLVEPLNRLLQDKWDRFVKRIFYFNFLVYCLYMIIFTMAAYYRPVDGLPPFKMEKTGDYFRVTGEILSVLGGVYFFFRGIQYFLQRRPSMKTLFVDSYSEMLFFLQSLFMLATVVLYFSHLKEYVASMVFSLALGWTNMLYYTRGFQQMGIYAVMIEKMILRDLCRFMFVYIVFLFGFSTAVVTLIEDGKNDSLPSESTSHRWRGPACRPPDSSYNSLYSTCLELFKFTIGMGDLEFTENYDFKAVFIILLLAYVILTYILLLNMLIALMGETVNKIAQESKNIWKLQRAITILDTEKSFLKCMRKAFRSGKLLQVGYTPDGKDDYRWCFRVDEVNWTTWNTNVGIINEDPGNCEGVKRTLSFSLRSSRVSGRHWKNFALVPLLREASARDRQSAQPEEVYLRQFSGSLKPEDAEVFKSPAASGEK

TRPV4 = TRPV4 (Homo sapiens, UniProt Q9HBA0); settings: cited from earlier work
Chain of TRPV4 (Q9HBA0 whole entry, species assumed): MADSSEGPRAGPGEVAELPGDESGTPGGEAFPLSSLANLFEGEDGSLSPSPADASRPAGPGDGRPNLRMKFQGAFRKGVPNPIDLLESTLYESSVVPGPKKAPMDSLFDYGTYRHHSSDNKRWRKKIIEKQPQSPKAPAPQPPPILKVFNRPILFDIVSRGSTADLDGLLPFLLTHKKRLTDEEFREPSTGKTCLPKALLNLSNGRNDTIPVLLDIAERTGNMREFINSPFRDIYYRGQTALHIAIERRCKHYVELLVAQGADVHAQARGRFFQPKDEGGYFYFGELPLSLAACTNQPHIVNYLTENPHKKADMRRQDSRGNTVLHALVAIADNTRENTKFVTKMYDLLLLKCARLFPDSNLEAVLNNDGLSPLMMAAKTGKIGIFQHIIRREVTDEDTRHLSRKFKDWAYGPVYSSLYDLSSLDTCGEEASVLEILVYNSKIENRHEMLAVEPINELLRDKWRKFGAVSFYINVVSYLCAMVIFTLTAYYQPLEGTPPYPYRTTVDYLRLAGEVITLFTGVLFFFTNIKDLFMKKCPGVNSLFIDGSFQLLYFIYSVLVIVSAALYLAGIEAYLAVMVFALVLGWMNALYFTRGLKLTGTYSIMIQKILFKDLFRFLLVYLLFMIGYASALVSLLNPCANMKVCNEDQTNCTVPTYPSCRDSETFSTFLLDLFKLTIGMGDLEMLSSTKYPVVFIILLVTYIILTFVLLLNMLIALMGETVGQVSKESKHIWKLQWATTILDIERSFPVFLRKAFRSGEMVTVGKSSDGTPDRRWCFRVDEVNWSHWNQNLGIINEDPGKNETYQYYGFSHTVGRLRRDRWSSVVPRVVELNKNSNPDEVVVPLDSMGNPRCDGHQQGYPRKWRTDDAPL

rats [15] = settings: 50 mg/kg orally each day; smoke 1 hr/day for 56 days; cited from earlier work
[16] = 100 μM, in the presence of 2 mM N-acetyl cysteine; cited from earlier work
[17] = Table A2 Preferred Base Viral Nebulizer Liquid, single 2 mL dose, 25 mL ELF, 100 percent retained
[18] = Table A3 Preferred Viral Respiratory Challenged Nebulizer Liquid, single 2 mL dose, 25 mL ELF, 100 percent retained
[19] = Table A4 Preferred Bacterial Pneumonia Nebulizer Liquid, single 2 mL dose, 25 mL ELF, 100 percent retained
[20] = Table A6 Preferred Base Nebulizer Liquid with Amino Acids, single 2 mL dose, 25 mL ELF, 100 percent retained
[21] = 2 mL/dose 4 times per day of Table A2 composition

CCNC(=O)CC[C@H](N)C(=O)O [theanine, L-theanine]
Concentration in Epithelial Lining Fluid (human): 2.67 mg/mL
growth of A549 cells (human lung cancer A549): significantly suppressed
growth of K562 cells (leukemia K562 cells): significantly suppressed

Cn1c(=O)c2c(CC(=O)Nc3nc(-c4ccc(F)c(C(F)(F)F)c4F)cs3)csc2n(C)c1=O [GRC 17536]
citric acid induced tussive response (guinea pigs [1]): inhibited

Oc1ccc(C=Cc2cc(O)cc(O)c2)cc1 [Resveratrol]
cigarette smoke-induced lung inflammation (mice [2]): decreased

CC12CCC(CC1=O)C2(C)C (stereo not drawn) [camphor]
activation of hTRPA1 (hTRPA1): did not activate

CCCCCCCCCCCC(=O)OCCOCCOCCOCCOCCOCCOCCOCCOCCOCCOCCOCCOCCOCCOCCOCCOCCOCCOCCOCCOCC(OCCOCCOCCOCCOCCOCCOCCOCCOCCOCCOCCOCCOCCOCCOCCOCCOCCOCCOCCOCCO)C1OCC(OCCOCCOCCOCCOCCOCCOCCOCCOCCOCCOCCOCCOCCOCCOCCOCCOCCOCCOCCOCCO)C1OCCOCCOCCOCCOCCOCCOCCOCCOCCOCCOCCOCCOCCOCCOCCOCCOCCOCCOCCOCCO (stereo not drawn) [Polysorbate 20]
Concentration in Epithelial Lining Fluid [17]: 0.53 mg/mL
Concentration in Epithelial Lining Fluid [18]: 1.07 mg/mL
Concentration in Epithelial Lining Fluid [19]: 1.33 mg/mL
Concentration in Epithelial Lining Fluid [20]: 1.33 mg/mL
Concentration in Epithelial Lining Fluid (human): 1.87 mg/mL
LD50 ([3]; in vivo): 3,850 mg/kg
NOAEL (rats [4]): 2,500 mg/kg
factor NOAEL over daily inhaled dose (rats [5]; [21]): 2,980 times
NOAEL for a 62 kg adult human (rats [5]; extrapolated from rat NOAEL): 155,000 mg per day

CC1(C)[C@@H]2CC[C@@]1(C)[C@](C)(O)C2 [2-methylosoborneol, 2-methylisoborneol]
IC50 (hTRPA1; TRPA1 activated by 20 uM AITC, read-out: IC-50 concentration, inactivation of TRPA1 activation): 120 µM
activation of hTRPA1 (hTRPA1): did not activate
inhibition of hTRPA1 activation by menthol and AITC (hTRPA1): completely inhibited

N[C@@H](CCC(=O)N[C@@H](CS)C(=O)NCC(=O)O)C(=O)O [glutathione, γ-L-glutamyl-L-cysteinyl-glycine]
estimated concentration in the epithelial lining fluid of the lungs (human): 889 µg/mL
LD50 ([3]; in vivo): 5000 mg/kg
LD50 ([3]; oral, mouse): 5,000 mg/kg
cigarette smoke extract-mediated IL-8 release (human MonoMac6 cells): significantly inhibited
adverse effects of aerosol administration [6]: no adverse effects
period epithelial lung fluid glutathione remained elevated [6]: 2 h
change from baseline FEV1 (asthma patients): −19%
change from baseline total pulmonary resistance (asthma patients): +61%

CC(=O)N[C@@H](CS)C(=O)O [N-acetyl cysteine]
estimated concentration in the epithelial lining fluid of the lungs (human): 889 µg/mL
LD50 ([3]; in vivo): 5050 mg/kg
LD50 ([3]; oral, rat): 5,050 mg/kg
sputum eosinophil cationic protein concentrations (COPD patients; COPD patients): reduced
lung lavage glutathione levels (COPD patients): increased
superoxide production by alveolar macrophages (COPD patients): reduced
H5N1-induced cytopathogenic effects, virus-induced apoptosis, and viral yields (H5N1 influenza A virus): reduces
Ca^2+ influx induced by cigarette smoke extract [7]: prevented
morphology and viability of CdCl2 treated human lung cells [8]: restored the morphology and viability
lung fibrosis induced by bleomycin (mice [9]): inhibited

C=C1CC/C=C(\C)CC[C@@H]2[C@@H]1CC2(C)C [B-Caryophyllene]
LD50 ([3]; oral, rat): >5,000 mg/kg
NOAEL (rats [4]; 90 d): >700 mg/kg

COc1ccc2cc3[n+](cc2c1OC)CCc1cc2c(cc1-3)OCO2 [berberine]
cigarette smoke-induced airway inflammation and mucus production (mice [10]): inhibited

CCCCC/C=C\C/C=C\C/C=C\C/C=C\CCCC(=O)OC(CO)CO [Table 2-AG, 2-arachidonoyl-glycerol, reference compound]
Ki (CB2 receptor): 650 nM

CC1=CC(=O)C(C(C)C)=CC1=O [thymoquinone]
bronchoalveolar lavage fluid IL-8 (guinea pigs [11]): significantly decreased
bronchoalveolar lavage fluid LTB4 (guinea pigs [11]): did not significantly change

NCCS(=O)(=O)O [Taurine]
Concentration in Epithelial Lining Fluid (human): 2.67 mg/mL

C/C1=C2/[N-][C@H]([C@H](CC(N)=O)[C@@]2(C)CCC(=O)NC[C@@H](C)OP(=O)([O-])O[C@H]2[C@@H](O)[C@@H](n3cnc4cc(C)c(C)cc43)O[C@@H]2CO)[C@]2(C)N=C(/C(C)=C3N=C(/C=C4N=C1[C@@H](CCC(N)=O)C\4(C)C)[C@@H](CCC(N)=O)[C@]\3(C)CC(N)=O)[C@@H](CCC(N)=O)[C@]2(C)CC(N)=O.[CH3-].[Co+3] [methylcobalamin]
Concentration in Epithelial Lining Fluid [17]: 0.0005 mg/mL
Concentration in Epithelial Lining Fluid [18]: 0.0011 mg/mL
Concentration in Epithelial Lining Fluid [19]: 0.0011 mg/mL
Concentration in Epithelial Lining Fluid [20]: 0.0011 mg/mL
NOAEL (mice [12]): 500 mg/kg
factor NOAEL over daily inhaled dose (mice [13]; [21]): 596,254 times
NOAEL for a 62 kg adult human (mice [13]; extrapolated from mouse NOAEL): 31,000 mg per day

CC1(C)C2CCC1(C)C(O)C2 (stereo not drawn) [borneol]
activation of hTRPA1 (hTRPA1): did not activate
inhibition of hTRPA1 activation by menthol and AITC (hTRPA1): completely inhibited

OC[C@@H](O)[C@H](O)[C@@H](O)CO [xylitol]
lung virus titers versus phosphate-buffered saline controls [14]: significantly greater reductions

CC12CCC(C1)C(C)(C)C2O (stereo not drawn) [fenchyl alcohol]
activation of hTRPA1 (hTRPA1): did not activate
inhibition of hTRPA1 activation by menthol and AITC (hTRPA1): completely inhibited

COc1cc(O)cc(O)c1C(=O)/C=C/c1ccccc1 [cardamonin]
IC50 (TRAPA1): 454 nM
HEK293 cell viability (HEK293 cell): did not significantly reduce
effect on TRPV1 (TRPV1): not affecting
effect on TRPV4 (TRPV4): not affecting

O=C1CC2CC[C@H]1C2 [norcamphor]
activation of hTRPA1 (hTRPA1): did not activate

epigallocatechin-3-gallate
cigarette smoke-induced oxidative stress and neutrophilic inflammation, airway mucus production and collagen deposition (rats [15]): ameliorated
bronchoalveolar lavage fluid IL-8 (guinea pigs [11]): significantly reduced
bronchoalveolar lavage fluid LTB4 (guinea pigs [11]): significantly reduced
increase of cellular uptake [16]: 2.5 times

CC(C)c1ccc(NC(=O)Cn2cnc3c2c(=O)n(C)c(=O)n3C)cc1 [HC-030031]
Ca^2+ influx induced by cigarette smoke extract [7]: similar
tussive response induced by TRPA1 agonists (AITC, acrolein, crotonaldehyde, cinnamaldehyde) (guinea pigs [1]): attenuated
